One block for each molecule: values may come before it.
Columns and labels:
[1] = molecular target: respiratory chain complex II (Saccharomyces cerevisiae, UniProt P21801+P33421+P37298+Q00711); assay: Respiratory chain enzymatic activity, complex II, S. cerevisiae; type: biochemical; settings: S. cerevisiae; 10 mM malonic acid; read-out: Inhibition (%) of positive control, Complex II
[2] = molecular target: respiratory chain complex II + III (Saccharomyces cerevisiae, UniProt P00163+P07143+P08067); assay: Respiratory chain enzymatic activity, complexes II plus III, S. cerevisiae; type: biochemical; settings: S. cerevisiae; 10 mM malonic acid, 10 μg/ml antimycin A; read-out: Inhibition (%) of positive control, Complex II+III
[3] = molecular target: respiratory chain complex II (Candida albicans, UniProt Q59QN7+Q5A1E8+Q5AJZ8+Q5ALU6); assay: Respiratory chain enzymatic activity, complex II, C. albicans; type: biochemical; settings: 10 mM malonic acid, read-out: Inhibition (%) of positive control, Complex II
[4] = molecular target: T1, respiratory chain complex II + III (Candida albicans, UniProt A0A1D8PHA3+A0A1D8PJX3+P0C8L0); assay: Respiratory chain enzymatic activity, complexes II plus III, C. albicans; type: biochemical; settings: C. albicans; 10 mM malonic acid, 10 μg/ml antimycin A; read-out: Inhibition (%) of positive control, Complex II+III
T1 sequence (P0C8L0 1-387): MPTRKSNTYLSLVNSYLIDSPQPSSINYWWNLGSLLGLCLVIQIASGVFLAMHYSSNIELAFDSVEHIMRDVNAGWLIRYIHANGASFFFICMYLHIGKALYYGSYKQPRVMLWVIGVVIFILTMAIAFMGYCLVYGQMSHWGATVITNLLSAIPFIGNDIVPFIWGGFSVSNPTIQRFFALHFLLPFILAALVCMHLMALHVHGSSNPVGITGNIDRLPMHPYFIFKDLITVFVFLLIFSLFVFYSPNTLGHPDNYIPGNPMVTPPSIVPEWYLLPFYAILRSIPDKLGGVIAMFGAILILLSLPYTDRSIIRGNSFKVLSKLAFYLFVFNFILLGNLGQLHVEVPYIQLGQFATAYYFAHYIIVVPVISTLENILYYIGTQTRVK
T1 sequence (A0A1D8PHA3 43-288): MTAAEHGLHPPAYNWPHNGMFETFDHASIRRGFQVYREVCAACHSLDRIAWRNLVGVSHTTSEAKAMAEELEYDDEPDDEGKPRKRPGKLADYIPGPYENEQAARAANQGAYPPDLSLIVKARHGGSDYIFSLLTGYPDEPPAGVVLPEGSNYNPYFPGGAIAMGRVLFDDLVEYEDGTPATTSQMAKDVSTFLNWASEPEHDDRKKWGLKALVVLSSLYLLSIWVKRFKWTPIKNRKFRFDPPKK
T1 sequence (A0A1D8PJX3 30-213): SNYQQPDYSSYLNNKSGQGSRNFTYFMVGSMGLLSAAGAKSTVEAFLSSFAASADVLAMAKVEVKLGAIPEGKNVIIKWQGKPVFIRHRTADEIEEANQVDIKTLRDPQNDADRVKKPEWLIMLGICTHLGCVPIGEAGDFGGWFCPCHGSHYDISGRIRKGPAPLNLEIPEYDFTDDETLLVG

complex III = settings: cited from earlier work
[5] = molecular target: respiratory chain complex II + III (Bos taurus, UniProt P00125+P00157+P13272); assay: MitoCheck complex II/III activity assay, bovine heart mitochondria; type: biochemical; settings: bovine heart; 1 mM TTFA, 5 μg/ml antimycin A; read-out: Inhibition (%) of positive control, Complex II+III
whole yeast cells = assay: Oxygen consumption of whole yeast cells (oxygen electrode); type: cell-based, Saccharomyces cerevisiae; settings: T-2307 30, 100, 300, 1,000 μM; antimycin A 10 μg/ml; CCCP 4 μM; 23°C; 3 × 10^7 cells/ml
Saccharomyces cerevisiae = assay: Intracellular ATP levels in yeast (luminescence assay); type: cell-based; settings: 8 h exposure at 30°C, semisynthetic medium; antimycin A 0.5 μg/ml
Protocol: Intracellular ATP levels were measured using a previously described method with the following modifications ([25]). S. cerevisiae was grown overnight in a semisynthetic medium (per liter: 20 g of lactate, 0.5 g of glucose, 3 g of yeast extract, 1 g of KH2PO4, 1 g of NH4Cl, 0.5 g of CaCl2·2H2O, 0.5 g of NaCl, and 0.6 g of MgCl2·6H2O; adjusted to pH 5.5 with NaOH). The cells were harvested during the logarithmic-growth phase by centrifugation (3,000 × g at room temperature for 5 min). They were then washed and resuspended in distilled water. The suspension was diluted in a semisynthetic medium to yield 1 × 10^6 cells/ml. After 5 min of incubation at 30°C, T-2307 and antimycin A were added to the suspension. Further, the cells were incubated for 8 h at 30°C. Subsequently, the cells were collected by centrifugation (4,200 × g at 4°C for 5 min). After washes performed with phosphate-buffered saline (PBS; pH 7.2), the cells were resuspended in PBS and diluted to yield 1 × 10^6 cells/ml. ATP levels were measured using the BacTiter-Glo microbial cell viability assay (Promega, Madison, WI, USA), following the manufacturer’s instructions. Luminescence was measured using a microplate reader POLARstar Optima (BMG Labtech GmbH). To determine the viable cell counts, the cell suspension was diluted with PBS and spread on YPD agar. After a 2-day incubation at 30°C, colonies were counted. The intracellular ATP level is expressed as relative light units (RLU)/CFU.

NADH dehydrogenase = NADH dehydrogenase activity, C. albicans; type: biochemical, Candida albicans; settings: C. albicans; 10 μM rotenone
[6] = molecular target: respiratory chain complex I (Bos taurus, UniProt P03887+P17694+P42026); assay: MitoCheck complex I activity assay, bovine heart mitochondria; type: biochemical; settings: bovine heart; 2 μM rotenone; read-out: Inhibition (%) of positive control, complex I
Protocol: The enzymatic activities of bovine heart mitochondrial respiratory chain complexes were determined using MitoCheck complex I, complex II/III, and complex IV activity assay kits (Cayman Chemical, Ann Arbor, MI, USA). Bovine heart mitochondria from these kits were used for experiments. The experiments were performed following the manufacturer’s instructions. In the experiments, 2 μM rotenone, 1 mM KCN, and both 1 mM TTFA and 5 μg/ml antimycin A served as positive controls for the inhibition of complex I, complex IV, and complexes II plus III, respectively.
In all experiments, the reaction rate of each enzyme was determined by calculating the slope of the linear portion of the curve. Complex I activity in C. albicans was calculated by subtracting the rotenone-insensitive enzymatic activity (with 10 μM rotenone) from the NADH dehydrogenase activity (without rotenone).
OCRs in isolated mitochondria and intracellular ATP levels were compared between the control and treatment groups using the parametric Dunnett’s multiple-comparison test. P values of <0.05 (comparison of multiple groups) were considered statistically significant. IC50 values were determined from dose-response curves compared with untreated control samples using a four-parameter logistic curve-fitting analysis. Data were analyzed using JMP 13.0 (SAS Institute Japan Ltd., Tokyo, Japan).

[7] = test system: isolated yeast mitochondria; assay: Mitochondrial oxygen consumption (MitoXpress probe); type: biochemical, Saccharomyces cerevisiae
Protocol: S. cerevisiae from frozen stock (−80°C) was inoculated into yeast extract-peptone-glucose (YPD) medium (1% yeast extract, 2% peptone, and 2% glucose) and grown for 24 h at 30°C. The cultured cells were subcultured into yeast extract-peptone-galactose (YPGal) medium (1% yeast extract, 2% peptone, 2% galactose, and 0.1% glucose) and incubated overnight with continuous shaking at 30°C. When the optical density at 600 nm reached approximately 1.0, the cells were collected by centrifugation (3,000 × g at room temperature for 5 min). Intact mitochondria were isolated as per a previously described protocol ([35]) with minor modifications as follows. Yeast cells were converted to spheroplasts by incubation with Zymolyase-20T (Nacalai Tesque, Inc., Kyoto, Japan) (4 mg of Zymolyase-20T/g [wet weight] of cells) and disrupted using a Dounce homogenizer. The crude mitochondrial fraction was isolated by differential centrifugation ([35]). […]. The mitochondrial protein concentration was determined using the DC protein assay (Bio-Rad Laboratories, Inc., Hercules, CA, USA) following the manufacturer’s instructions. The mitochondrial stock solution was maintained on ice during the oxygen consumption experiment.
The mitochondrial oxygen consumption was measured using a phosphorescent oxygen-sensitive probe, MitoXpress-Xtra (Agilent Technologies, Santa Clara, CA, USA), as described previously ([16], [36]). Succinate was used as a respiratory substrate in this assay. […] A microplate reader, PHERAstar Plus (BMG Labtech GmbH, Ortenberg, Germany), was used to read. The time-resolved fluorescence protocol was set to read the plate at 1.5-min intervals for 60 min at an excitation wavelength of 337 nm, an emission wavelength of 665 nm, a delay time of 40 μs, and a gate time of 100 μs at 30°C.
[…]. […] For quantitative assessment, OCR was determined from the slope of the initial 7.5 min. OCR is expressed as micromolar of O2 per minute per milligram of protein.
The drug concentration was expressed as micromoles per milligram of protein. […]

Sequence of respiratory chain complex II (Candida albicans, UniProt Q59QN7+Q5A1E8+Q5AJZ8+Q5ALU6) (Q5A1E8 26-641): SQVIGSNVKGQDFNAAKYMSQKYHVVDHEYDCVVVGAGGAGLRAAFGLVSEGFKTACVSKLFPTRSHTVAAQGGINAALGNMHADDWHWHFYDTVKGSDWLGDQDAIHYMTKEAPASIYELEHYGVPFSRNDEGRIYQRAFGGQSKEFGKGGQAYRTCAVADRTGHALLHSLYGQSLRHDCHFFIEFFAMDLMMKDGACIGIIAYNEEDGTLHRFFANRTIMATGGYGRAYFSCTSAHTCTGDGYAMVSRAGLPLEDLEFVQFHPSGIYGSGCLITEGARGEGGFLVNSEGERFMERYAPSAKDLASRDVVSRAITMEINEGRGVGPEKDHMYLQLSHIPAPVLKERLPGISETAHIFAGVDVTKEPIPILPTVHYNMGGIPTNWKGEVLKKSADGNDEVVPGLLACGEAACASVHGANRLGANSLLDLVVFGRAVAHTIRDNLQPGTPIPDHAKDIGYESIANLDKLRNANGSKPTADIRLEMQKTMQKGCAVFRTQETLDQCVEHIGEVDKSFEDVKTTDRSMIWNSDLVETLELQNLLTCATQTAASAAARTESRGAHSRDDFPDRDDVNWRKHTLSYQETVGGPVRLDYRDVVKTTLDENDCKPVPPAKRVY
Sequence of respiratory chain complex II (Candida albicans, UniProt Q59QN7+Q5A1E8+Q5AJZ8+Q5ALU6) (Q59QN7 20-263): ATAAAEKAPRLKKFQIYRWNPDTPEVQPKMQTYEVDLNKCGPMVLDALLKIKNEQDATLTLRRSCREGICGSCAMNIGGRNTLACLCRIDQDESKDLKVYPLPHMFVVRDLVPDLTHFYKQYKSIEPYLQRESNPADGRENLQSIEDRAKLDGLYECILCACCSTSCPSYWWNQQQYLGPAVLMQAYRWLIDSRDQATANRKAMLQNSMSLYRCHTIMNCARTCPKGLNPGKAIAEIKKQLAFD
Sequence of respiratory chain complex II (Candida albicans, UniProt Q59QN7+Q5A1E8+Q5AJZ8+Q5ALU6) (Q5ALU6 32-176): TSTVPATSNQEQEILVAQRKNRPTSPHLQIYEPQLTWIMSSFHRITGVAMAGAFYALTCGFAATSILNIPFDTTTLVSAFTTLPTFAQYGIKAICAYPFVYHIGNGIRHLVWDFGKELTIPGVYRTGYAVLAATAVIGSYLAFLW
Sequence of respiratory chain complex II (Candida albicans, UniProt Q59QN7+Q5A1E8+Q5AJZ8+Q5ALU6) (Q5AJZ8 28-164): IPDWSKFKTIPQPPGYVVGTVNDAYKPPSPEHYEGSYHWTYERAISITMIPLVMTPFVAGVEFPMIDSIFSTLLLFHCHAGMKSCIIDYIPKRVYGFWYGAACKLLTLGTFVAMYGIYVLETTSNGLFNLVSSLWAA
Sequence of respiratory chain complex II (Saccharomyces cerevisiae, UniProt P21801+P33421+P37298+Q00711) (P21801 21-266): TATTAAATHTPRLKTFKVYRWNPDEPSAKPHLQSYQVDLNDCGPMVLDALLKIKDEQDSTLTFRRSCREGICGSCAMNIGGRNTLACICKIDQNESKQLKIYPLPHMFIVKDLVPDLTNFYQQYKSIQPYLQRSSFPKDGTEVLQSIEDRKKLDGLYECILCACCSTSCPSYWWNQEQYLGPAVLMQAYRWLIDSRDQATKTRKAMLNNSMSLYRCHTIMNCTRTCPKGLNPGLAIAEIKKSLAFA
Sequence of respiratory chain complex II (Saccharomyces cerevisiae, UniProt P21801+P33421+P37298+Q00711) (P33421 51-198): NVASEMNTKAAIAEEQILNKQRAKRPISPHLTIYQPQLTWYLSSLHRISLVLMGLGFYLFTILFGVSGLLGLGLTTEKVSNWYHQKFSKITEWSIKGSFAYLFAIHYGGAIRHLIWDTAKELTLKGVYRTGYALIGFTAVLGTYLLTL
Sequence of respiratory chain complex II (Saccharomyces cerevisiae, UniProt P21801+P33421+P37298+Q00711) (P37298 32-181): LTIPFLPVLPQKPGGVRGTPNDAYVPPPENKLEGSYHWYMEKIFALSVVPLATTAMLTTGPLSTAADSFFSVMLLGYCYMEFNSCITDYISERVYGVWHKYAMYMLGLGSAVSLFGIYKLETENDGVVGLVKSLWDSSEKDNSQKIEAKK
Sequence of respiratory chain complex II (Saccharomyces cerevisiae, UniProt P21801+P33421+P37298+Q00711) (Q00711 29-640): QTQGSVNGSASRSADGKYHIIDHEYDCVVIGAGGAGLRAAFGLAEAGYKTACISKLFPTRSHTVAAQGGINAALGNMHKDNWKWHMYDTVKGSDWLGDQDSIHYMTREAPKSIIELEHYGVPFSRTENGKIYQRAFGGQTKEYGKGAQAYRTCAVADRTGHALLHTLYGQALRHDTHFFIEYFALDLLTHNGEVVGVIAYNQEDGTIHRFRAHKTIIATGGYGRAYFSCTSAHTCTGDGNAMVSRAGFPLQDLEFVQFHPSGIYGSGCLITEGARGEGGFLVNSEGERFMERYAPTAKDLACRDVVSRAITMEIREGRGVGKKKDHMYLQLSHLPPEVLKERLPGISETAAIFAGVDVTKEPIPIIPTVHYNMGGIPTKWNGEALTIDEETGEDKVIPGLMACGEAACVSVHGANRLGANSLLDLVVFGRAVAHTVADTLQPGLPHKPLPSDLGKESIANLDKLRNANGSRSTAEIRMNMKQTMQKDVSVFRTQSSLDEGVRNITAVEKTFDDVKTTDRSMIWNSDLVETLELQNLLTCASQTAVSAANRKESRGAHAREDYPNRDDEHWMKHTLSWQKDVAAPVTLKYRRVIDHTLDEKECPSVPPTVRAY

Molecule: O=C(O)CC(=O)O [Malonic acid]
inhibition at 10000 µM [1]: 100%
inhibition at 10000 µM [2]: 97%
inhibition at 10000 µM [3]: 100%
inhibition at 10000 µM [4]: 98%

Molecule: C/C=C/[C@@H]1[C@H]2C[C@@H](C)CC[C@@H]2C(C)=C[C@H]1C(=O)c1c(O)c(-c2ccc(O)cc2)c[nH]c1=O [ilicicolin H]
selectivity between yeast and bovine complex III (complex III): > 70 fold

inhibition at 1000 µM [5]: 86%
Molecule: O=C(CC(=O)C(F)(F)F)c1cccs1 [TTFA, 2-thenoyltrifluoroacetone, reference compound]

Molecule: CCCCCC[C@H]1C(=O)O[C@H](C)[C@H](NC(=O)c2cccc(NC=O)c2O)C(=O)O[C@@H](C)[C@@H]1OC(=O)CC(C)C [Antimycin A]
effect on oxygen consumption in whole yeast cells (whole yeast cells): completely and immediately inhibited respiration
inhibition at 10 µg/mL [2]: 97%
inhibition at 10 µg/mL [4]: 98%
inhibition at 5 µg/mL [5]: 92%
effect on intracellular ATP level (Saccharomyces cerevisiae): significantly decreased

Molecule: N#CC(C#N)=NNc1cccc(Cl)c1 [CCCP, carbonyl cyanide m-chlorophenylhydrazone]
effect on oxygen consumption in whole yeast cells (whole yeast cells): stimulated oxygen consumption

Molecule: C=C(C)[C@H]1Cc2c(ccc3c2O[C@@H]2COc4cc(OC)c(OC)cc4[C@@H]2C3=O)O1 [Rotenone, rotenone, reference compound]
Inhibition (%) of positive control, NADH dehydrogenase (including Complex I) (NADH dehydrogenase): 59%
inhibition at 2 µM [6]: 68%

Molecule: Oligomycin A
effect on mitochondrial oxygen consumption rate (OCR) ([7]; ADP-stimulated condition (succinate + ADP)): significantly inhibited
effect on mitochondrial oxygen consumption rate (OCR) ([7]; basal condition (succinate, absence of ADP)): did not decrease the OCR

From PMC6658782, “The Novel Arylamidine T-2307 Selectively Disrupts Yeast Mitochondrial Function by Inhibiting Respiratory Chain Complexes” (Antimicrobial Agents and Chemotherapy, 2019)
